Read-outs that look alike come from different tables or passages of the source. Bridge positions count the residues as written; N and C are the ends. Square brackets hold non-standard residues; d marks the D form. Peptide text beside a SMILES is read from it. Abu = CC[C@H](N)C(=O)O
Target: porcine pancreatic elastase (Sus scrofa, UniProt P00772)
Test: Elastase inhibitory activity of peptides (AAApNA hydrolysis; IC50, Ki, residual activity)
Format: biochemical
Conditions: for Residual activity of elastase / IC50: elastase 0.5 μM, AAApNA 1 mM
Procedure: The inhibition constants of various synthetic active peptide inhibitors (molecular scaffolds) against seine proteases were measured. The substrates N-succinyl-Ala-Ala-Pro-Phe-p-nitroaniline (AAPFpNA), Nα—Benzoyl-L-arginine-4-nitroaniline hydrochloride (BApNA) and N-succinyl-[…] (AAApNA) are used in competitive binding reaction to determine the inhibitory activities against α-chymotrypsin, bovine trypsin, and porcine pancreatic elastase, respectively. Experiments for α-chymotrypsin and bovine trypsin inhibition were measured in 20 mM CaCl2, 50 mM Tris-HCl buffer (pH 7.8), and that for porcine elastase inhibition was measured in 50 mM Tris-HCl buffer (pH 8.0). The concentration of the peptide was measured using optical density (OD) at 280 nm. The Michaelis constant (Km) of the enzyme hydrolysis substrate is calculated from the initial rate of substrate hydrolysis at 405 nm. The absorbance value of the substrate was measured at 405 nm after complete hydrolysis. All data were processed using nonlinear regression.
• (1) Added a total 198 μL of reaction buffer (20 mM CaCl2, 50 mM Tris-HCl (pH 8.0)) into the 96 well plate, followed by preheating at 37° C. for 15 min. Then added 2 μL of different concentrations of substrates (pNA, dissolved in DMSO), and mixed by centrifugation at 500 rpm for 1 min. Finally, the plate was incubated at 37° C. for 30 min, and the absorbance value at 405 nm was measured. In the 200 μL of reaction system, the final concentrations of pNA were 0, 0.025, 0.05, 0.075, 0.1, 0.125, 0.15, 0.175, and 0.2 mM, respectively. Make three repetitions for each concentration and plot the OD405 m value with pNA concentration to obtain the standard curve. • (2) Added a total 190 μL of reaction buffer (20 mM CaCl2, 50 mM Tris-HCl (pH 8.0)) and 8 μL of 4.375 μM elastase into the 96 well plate, followed by preheating at 37° C. for 5 min. Then added 2 μL of different concentrations of substrates (AAApNA, dissolved in DMSO), and mixed by centrifugation at 500 rpm for 1 min. Finally, the plate was incubated at 37° C. for 30 min, and the absorbance value at 405 nm was measured. In the 200 μL of reaction system, the final concentrations of AAApNA were 0, 0.125, 0.166, 0.2, 0.25, 0.33, 0.6, 0.75, and 1.25 mM, respectively. Make three repetitions for each concentration and plot the OD405 nm value with time to obtain the corresponding curve. Divide the slope of the curve by the slope of the standard curve and the enzyme concentration to obtain the initial velocity V0 (mM/(min*mM protein). Plot the initial velocity V0 with the concentration of substrate AAApNA using Prism software, and the Michaelis constant Km value of elastase hydrolyzing AAApNA was obtained.
• (1) Added a total 190 μL of different concentrations of peptides (ECs) against elastase and reaction buffer (20 mM CaCl2, 50 mM Tris-HCl buffer (pH 8.0)) into the pre-cold 96 well plate, followed by preheating at 37° C. for 5 min and centrifugated at 500 rpm for 1 min and allowed to stand for 4 minutes. Then added 8 μL of 12.5 μM elastase and incubated at 37° C. for 10 min and centrifugated at 500 rpm for 1 min and allowed to stand for 9 minutes. Finally, added 2 μL of 100 mM AAApNA, and mixed by centrifugation at 500 rpm for 1 min. The plate was incubated at 37° C. for 60 min, and the absorbance value at 405 nm was measured. Three repetitions were made, and only reaction buffer and substrate were added in the blank control as the minimum absorption value (Min OD405 nm); Only reaction buffer, enzyme and substrate were added in the negative control as the maximum absorption value (Max OD405 nm). • (2) In the 200 μL of reaction system, the final concentrations of elastase and AAApNA were 0.5 μM and 1 mM, respectively. • (3) Data statistics
Residual activity of enzyme (%)=(1−(Max OD405 nm−Sample OD405 nm)/(Max OD405 nm−Min OD405 nm))*100 […]

Sequence of porcine pancreatic elastase (P00772 27-266): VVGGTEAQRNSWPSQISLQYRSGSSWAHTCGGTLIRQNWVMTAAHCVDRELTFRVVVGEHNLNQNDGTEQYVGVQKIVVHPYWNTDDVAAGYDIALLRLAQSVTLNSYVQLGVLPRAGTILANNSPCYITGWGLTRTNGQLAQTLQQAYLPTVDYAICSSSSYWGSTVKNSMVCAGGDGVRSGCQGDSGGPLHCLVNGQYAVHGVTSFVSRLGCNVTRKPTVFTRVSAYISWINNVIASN

SMILES | Residual activity of elastase (peptide 0.001 μM) [%] | Residual activity of elastase (peptide 0.01 μM) [%] | Residual activity of elastase (peptide 0.1 μM) [%] | Residual activity of elastase (peptide 1 μM) [%] | Residual activity of elastase (peptide 10 μM) [%] | Residual activity of elastase (peptide 100 μM) [%] | Residual activity of elastase (peptide 1000 μM) [%] | IC50 [nM] | other results
CC[C@H](C)[C@H](N)C(=O)N[C@H]1CSSC[C@@H](C(=O)N[C@@H](CCC(N)=O)C(=O)O)NC(=O)[C@H](CCC(N)=O)NC(=O)[C@@H]2CCCN2C(=O)[C@@H]2CCCN2C(=O)[C@H]([C@@H](C)CC)NC(=O)[C@H](CO)NC(=O)[C@H](C)NC(=O)[C@H]([C@@H](C)O)NC1=O [EC19] (H-ICTASIPPQCQ-OH; disulfide 2-10; N-terminus and C-terminus assumed) | 99.9 ± 0.5 | 99.4 ± 0.1 | 96.1 ± 0.9 | 52.1 ± 1.8 | 5.4 ± 0.3 | 0.2 ± 0.1 | 0.0 ± 0.0 | – | Residual activity of elastase (peptide 0.5 μM): 81.2 ± 4.1%; Residual activity of elastase (peptide 2 μM): 29.8 ± 0.8%; Residual activity of elastase (peptide 4 μM): 15.5 ± 0.3%; Ki (read-out: Ki): 330 nM
CC[C@H](C)[C@@H]1NC(=O)[C@H](CO)NC(=O)[C@H](C)NC(=O)[C@H]([C@@H](C)O)NC(=O)[C@@H](NC(=O)[C@@H](N)CC(C)C)CSSC[C@@H](C(=O)N[C@@H](CCCNC(=N)N)C(=O)O)NC(=O)[C@H](CCC(N)=O)NC(=O)[C@@H]2CCCN2C(=O)[C@@H]2CCCN2C1=O [EC20] (H-LCTASIPPQCR-OH; disulfide 2-10; N-terminus and C-terminus assumed) | – | – | – | – | – | – | – | > 50000 | –
CC[C@H](C)[C@@H]1NC(=O)[C@@H]2CCCN2C(=O)[C@@H]2CCCN2C(=O)[C@H]([C@@H](C)CC)NC(=O)[C@H](CO)NC(=O)[C@H](C)NC(=O)[C@H]([C@@H](C)O)NC(=O)[C@@H](NC(=O)[C@@H](N)C(C)C)CSSC[C@@H](C(=O)N[C@@H](CCC(N)=O)C(=O)O)NC1=O [EC22] (H-VCTASIPPICQ-OH; disulfide 2-10; C-terminus assumed) | 100.1 ± 1.0 | 99.8 ± 0.3 | 92.0 ± 6.8 | 20.4 ± 1.2 | 2.4 ± 0.2 | 0.0 ± 0.0 | −0.2 ± 0.2 | 400 | Residual activity of elastase (peptide 0.2 μM): 70.8 ± 4.3%; Residual activity of elastase (peptide 0.4 μM): 51.6 ± 1.7%; Ki (read-out: Ki): 110 nM
CC[C@H](C)[C@H](N)C(=O)N[C@H]1CSSC[C@@H](C(=O)N[C@@H](CCC(N)=O)C(=O)O)NC(=O)[C@H]([C@@H](C)CC)NC(=O)[C@@H]2CCCN2C(=O)[C@@H]2CCCN2C(=O)[C@H]([C@@H](C)CC)NC(=O)[C@H](CO)NC(=O)[C@H](C)NC(=O)[C@H]([C@@H](C)O)NC1=O [EC23] (H-ICTASIPPICQ-OH; disulfide 2-10; C-terminus assumed) | 103.0 ± 2.2 | 97.8 ± 4.8 | 76.8 ± 3.1 | 15.1 ± 0.9 | 1.5 ± 0.3 | −0.2 ± 0.1 | −0.2 ± 0.1 | – | Residual activity of elastase (peptide 0.2 μM): 56.4 ± 2.9%; Residual activity of elastase (peptide 0.4 μM): 40.8 ± 2.0%; Residual activity of elastase (peptide 0.6 μM): 23.7 ± 0.2%; Ki (read-out: Ki against elastase): 70 nM
CC(C)C[C@H](N)C(=O)N[C@H]1CSSC[C@@H](C(=O)N[C@@H](CCCNC(=N)N)C(=O)O)NC(=O)[C@H]([C@@H](C)O)NC(=O)[C@@H]2CCCN2C(=O)[C@@H]2CCCN2C(=O)[C@H](CC(N)=O)NC(=O)[C@H](CO)NC(=O)[C@H](C)NC(=O)[C@H]([C@@H](C)O)NC1=O [EC28] (H-LCTASNPPTCR-OH; disulfide 2-10) | – | – | – | – | – | – | – | > 50000 | –
CC[C@H](C)[C@@H]1NC(=O)[C@@H]2CCCN2C(=O)[C@@H]2CCCN2C(=O)[C@H]([C@@H](C)CC)NC(=O)[C@H](CO)NC(=O)[C@H](C)NC(=O)[C@H]([C@@H](C)O)NC(=O)[C@@H](NC(=O)[C@@H](N)Cc2ccc(O)cc2)CSSC[C@@H](C(=O)N[C@@H](CCC(N)=O)C(=O)O)NC1=O [EC29] (H-YCTASIPPICQ-OH; disulfide 2-10; C-terminus assumed) | 105.9 ± 2.2 | 102.0 ± 2.9 | 92.6 ± 2.7 | 47.5 ± 0.7 | 5.9 ± 0.4 | 0.1 ± 0.1 | 0.1 ± 0.0 | – | Residual activity of elastase (peptide 0.5 μM): 72.7 ± 4.4%; Residual activity of elastase (peptide 2 μM): 28.5 ± 0.4%; Residual activity of elastase (peptide 6 μM): 8.9 ± 0.4%

Now from value to compound, other results behind:

Residual activity of elastase (peptide 0.001 μM) [%] | Residual activity of elastase (peptide 0.01 μM) [%] | Residual activity of elastase (peptide 0.1 μM) [%] | Residual activity of elastase (peptide 1 μM) [%] | Residual activity of elastase (peptide 10 μM) [%] | Residual activity of elastase (peptide 100 μM) [%] | Residual activity of elastase (peptide 1000 μM) [%] | IC50 [nM] | SMILES | other results
– | – | – | – | – | – | – | > 50000 | CC[C@H](C)[C@@H]1NC(=O)CNC(=O)[C@@H](N)CSSC[C@@H](C(=O)N[C@@H](CCC(N)=O)C(=O)O)NC(=O)[C@H]([C@@H](C)CC)NC(=O)[C@@H]2CCCN2C(=O)[C@@H]2CCCN2C(=O)[C@H]([C@@H](C)CC)NC(=O)[C@H](CO)NC(=O)[C@H](C)NC(=O)[C@H]([C@@H](C)O)NC(=O)[C@H](C)NC1=O [EC30] (H-CGIATASIPPICQ-OH; disulfide 1-12) | –
– | – | – | – | – | – | – | > 50000 | CC[C@@H]1NC(=O)[C@H]([C@@H](C)CC)NC(=O)CNC(=O)[C@@H](N)CSSC[C@@H](C(=O)N[C@@H](CCC(N)=O)C(=O)O)NC(=O)[C@H]([C@@H](C)CC)NC(=O)[C@@H]2CCCN2C(=O)[C@@H]2CCCN2C(=O)[C@H]([C@@H](C)CC)NC(=O)[C@H](CO)NC(=O)[C@H](C)NC(=O)[C@H]([C@@H](C)O)NC1=O [EC31] (H-CGI[Abu]TASIPPICQ-OH; disulfide 1-12) | –
– | – | – | – | – | – | – | > 50000 | CC[C@H](C)[C@@H]1NC(=O)CNC(=O)[C@@H](N)CSSC[C@@H](C(=O)N[C@@H](CCC(N)=O)C(=O)O)NC(=O)[C@H]([C@@H](C)CC)NC(=O)[C@@H]2CCCN2C(=O)[C@@H]2CCCN2C(=O)[C@H]([C@@H](C)CC)NC(=O)[C@H](CO)NC(=O)[C@H](C)NC(=O)[C@H]([C@@H](C)O)NC(=O)[C@H](CO)NC1=O [EC34] (H-CGISTASIPPICQ-OH; disulfide 1-12) | –
– | – | – | – | – | – | – | > 50000 | CC[C@H](C)[C@@H]1NC(=O)CNC(=O)[C@@H](N)CSSC[C@@H](C(=O)N[C@@H](CCC(N)=O)C(=O)O)NC(=O)[C@H]([C@@H](C)CC)NC(=O)[C@@H]2CCCN2C(=O)[C@@H]2CCCN2C(=O)[C@H]([C@@H](C)CC)NC(=O)[C@H](CO)NC(=O)[C@H](C)NC(=O)[C@H]([C@@H](C)O)NC(=O)[C@H](Cc2ccccc2)NC1=O [EC36] (H-CGIFTASIPPICQ-OH; disulfide 1-12) | –
– | – | – | – | – | – | – | 1000 | CC[C@H](C)[C@@H]1NC(=O)CNC(=O)[C@@H](N)CSSC[C@@H](C(=O)N[C@@H](CCC(N)=O)C(=O)O)NC(=O)[C@H]([C@@H](C)CC)NC(=O)[C@@H]2CCCN2C(=O)[C@@H]2CCCN2C(=O)[C@H]([C@@H](C)CC)NC(=O)[C@H](CO)NC(=O)[C@H](C)NC(=O)[C@H]([C@@H](C)O)NC(=O)[C@H](CC(N)=O)NC1=O [EC38] (H-CGINTASIPPICQ-OH; disulfide 1-12; C-terminus assumed) | –
